In ChEMBL document CHEMBL3045690, “Ligand-based drug design studies using predictive pharmacophore model generation on 4H-1,2,4-triazoles as AT1 receptor antagonists” (Med Chem Res, 2012) one finds IC50 data, which are given here for 36 compounds.

The target of the assay is T1, Type-1 angiotensin II receptor (Oryctolagus cuniculus, UniProt P34976).
T1 sequence (P34976 whole entry): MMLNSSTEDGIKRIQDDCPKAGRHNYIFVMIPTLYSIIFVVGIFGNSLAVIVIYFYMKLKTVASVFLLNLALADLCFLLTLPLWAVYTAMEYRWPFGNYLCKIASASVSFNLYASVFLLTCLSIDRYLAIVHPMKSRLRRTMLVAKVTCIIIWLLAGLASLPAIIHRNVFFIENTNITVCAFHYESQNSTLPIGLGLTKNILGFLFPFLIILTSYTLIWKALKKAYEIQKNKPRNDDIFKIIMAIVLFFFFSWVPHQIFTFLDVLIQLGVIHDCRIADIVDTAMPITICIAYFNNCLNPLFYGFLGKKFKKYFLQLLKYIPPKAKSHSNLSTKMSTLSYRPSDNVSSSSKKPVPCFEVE
The experiment in a line: Antagonist activity at AT1 receptor in Oryctolagus cuniculus (rabbit) aorta.
The IC50 is the concentration that gives 50% inhibition. Low readings indicate greater potency in that assay, high ones weaker potency in that assay. Compound `CCCCc1nnc(NCc2ccc(OC)cc2)n1Cc1ccc(NC(=O)c2ccccc2-c2nnn[nH]2)cc1` showed an IC50 of 780 nM.

As to `CCCCc1nnc([S+]([O-])Cc2ccccc2C(=O)O)n1Cc1ccc(NC(=O)c2ccccc2-c2nnn[nH]2)cc1` (stereo unspecified), inhibition was half-maximal at 10 nM (IC50). Regarding `CCCCc1nnc(S(=O)(=O)Cc2ccc(Cl)cc2)n1Cc1ccc(NC(=O)c2ccccc2-c2nnn[nH]2)cc1`, 48 nM corresponded to half-maximal inhibition (IC50). As for `CCCCc1nnc([S+]([O-])Cc2ccc([N+](=O)[O-])cc2)n1Cc1ccc(NC(=O)c2ccccc2-c2nnn[nH]2)cc1` (stereo unspecified), the figure is 8.9 nM; as for `CCCCc1nnc(OCc2ccccc2)n1Cc1ccc(NC(=O)c2ccccc2-c2nnn[nH]2)cc1`, 370 nM.

Consider `CCCCc1nnc(SC(C)(C)C)n1Cc1ccc(NC(=O)c2ccccc2C(=O)O)cc1`, for which inhibition was half-maximal at 890 nM (IC50). This IC50 lies about 2.4-fold higher than the previous one.

In the case of `CCCCc1nnc(S(C)(=O)=O)n1Cc1ccc(NC(=O)c2ccccc2-c2nnn[nH]2)cc1`, the IC50 was found to be 400 nM. On to `CCCCc1nnc(SCc2ccc([N+](=O)[O-])cc2)n1Cc1ccc(NC(=O)c2ccccc2-c2nnn[nH]2)cc1`, for which the midpoint of inhibition, the IC50, lay at 6.6 nM. As for `CCCCc1nnc(SCc2ccc(C(=O)O)cc2)n1Cc1ccc(NC(=O)c2ccccc2-c2nnn[nH]2)cc1`, the figure is 24 nM; as for `CCCCc1nnc(OCCc2ccccc2)n1Cc1ccc(NC(=O)c2ccccc2-c2nnn[nH]2)cc1`, 63 nM.

As to `CCCCc1nnc(SCc2ccc(C(=O)OC)cc2)n1Cc1ccc(NC(=O)c2ccccc2-c2nnn[nH]2)cc1`, the IC50 amounted to 120 nM.

For `CCCCc1nnc(SCc2ccccc2[N+](=O)[O-])n1Cc1ccc(NC(=O)c2ccccc2-c2nnn[nH]2)cc1`, inhibition was half-maximal at 130 nM (IC50).

`CCCSc1nnc(Cc2ccccc2)n1Cc1ccc(NC(=O)c2ccccc2C(=O)O)cc1` gave an IC50 of 320 nM. Against the preceding compound, the IC50 is about 2.5-fold higher. Next, `CCCCc1nnc(SCc2ccccc2C(=O)OC)n1Cc1ccc(NC(=O)c2ccccc2-c2nnn[nH]2)cc1`: 90 nM; `CCCCc1nnc(SC)n1Cc1ccc(NC(=O)c2ccccc2-c2nnn[nH]2)cc1`: 310 nM; `CCCCc1nnc(NCc2ccc(Cl)cc2)n1Cc1ccc(NC(=O)c2ccccc2-c2nnn[nH]2)cc1`: 140 nM. `CCCCc1nnc(SCc2ccccc2CO)n1Cc1ccc(NC(=O)c2ccccc2-c2nnn[nH]2)cc1`: 36 nM corresponded to half-maximal inhibition (IC50). Next, `CCCCc1nnc(C(=O)N(C)c2ccccc2)n1Cc1ccc(NC(=O)c2ccccc2-c2nnn[nH]2)cc1`: 350 nM; `CCCCc1nnc(SCc2ccccc2)n1Cc1ccc(NC(=O)c2ccccc2-c2nnn[nH]2)cc1`: 7.1 nM. Next, `CCCCc1nnc(SCc2ccccc2-c2nnn[nH]2)n1Cc1ccc(NC(=O)c2ccccc2-c2nnn[nH]2)cc1`: 1.4 nM; `CCCCc1nnc(NCc2ccccc2)n1Cc1ccc(NC(=O)c2ccccc2-c2nnn[nH]2)cc1`: 28 nM. `CCCCc1nnc(C(=O)NCc2ccccc2)n1Cc1ccc(NC(=O)c2ccccc2-c2nnn[nH]2)cc1` registered an IC50 of 57 nM. As for `CCCCc1nnc(SCc2cccc(OC)c2)n1Cc1ccc(NC(=O)c2ccccc2-c2nnn[nH]2)cc1`, the figure is 94 nM; as for `CCCCc1nnc(SCC(C)C)n1Cc1ccc(NC(=O)c2ccccc2-c2nnn[nH]2)cc1`, 72 nM. Turning to `CCCCc1nnc([S+]([O-])Cc2ccc(Cl)cc2)n1Cc1ccc(NC(=O)c2ccccc2-c2nn[nH]n2)cc1` (stereo unspecified), the midpoint of inhibition, the IC50, lay at 11 nM. This IC50 is about 6.5-fold lower than that of the compound before. As for `CCCCc1nnc(SCC2CCCCC2)n1Cc1ccc(NC(=O)c2ccccc2-c2nnn[nH]2)cc1`, the figure is 36 nM; as for `CCCCc1nnc(Sc2ccccc2)n1Cc1ccc(NC(=O)c2ccccc2-c2nnn[nH]2)cc1`, 100 nM; as for `CCCCc1nnc(SCCc2ccccc2)n1Cc1ccc(NC(=O)c2ccccc2-c2nnn[nH]2)cc1`, 35 nM. In turn, `CCCCc1nnc([S+]([O-])Cc2ccc(OC)cc2)n1Cc1ccc(NC(=O)c2ccccc2-c2nn[nH]n2)cc1` (stereo unspecified) had an IC50 of 50 nM. Next, `CCCc1nnc(SCc2ccc(Cl)cc2)n1Cc1ccc(NC(=O)c2ccccc2-c2nnn[nH]2)cc1`: 98 nM. As for `CCCCc1nnc(SCc2ccccc2C(=O)O)n1Cc1ccc(NC(=O)c2ccccc2-c2nnn[nH]2)cc1`, the figure is 1.5 nM; as for `CCCCc1nnc(S)n1Cc1ccc(NC(=O)c2ccccc2C(=O)O)cc1`, 860 nM. On to `CCCCc1nnc(C(=O)N(C)Cc2ccccc2)n1Cc1ccc(NC(=O)c2ccccc2-c2nnn[nH]2)cc1`, for which half-maximal inhibition (IC50) was put at 89 nM. Against the preceding compound, the IC50 is about 9.7-fold lower.

Regarding `CCCCc1nnc(SCc2ccccc2C)n1Cc1ccc(NC(=O)c2ccccc2-c2nnn[nH]2)cc1`, half-maximal inhibition (IC50) was put at 17 nM. This IC50 lies about 5.2-fold lower than the previous one. The compound `CCCCCc1nnc(SCc2ccc(Cl)cc2)n1Cc1ccc(NC(=O)c2ccccc2-c2nnn[nH]2)cc1` came in with an IC50 of 94 nM. Turning to `CCCCc1nnc(SCc2ccccc2Cl)n1Cc1ccc(NC(=O)c2ccccc2-c2nnn[nH]2)cc1`, the IC50 was 110 nM.
